Laboratory results from patent US6387882B1, “Vitamin E derivatives” (Senju Pharmaceutical Co., Ltd., priority 1997, dated 2002).

Tests used:
[1] = test system: buthionine sulfoximine (BSO)-induced cataract; assay: Effect on BSO-induced cataract in rats; assay type: in vivo; settings: newborn SD rats
Method: The present compound was examined for the effect on buthionine sulfoximine (BSO)-induced cataract in rats.
The compound of Example 2 (abbreviated to ETS-GS-Na) 0.1 mmol/10 ml/kg, i.p.
The test was performed according to the method of Maitra et al.
Indrani Maitra, Elena Serbinova et al., α-Lipoic Acid Prevents Buthionine Sulfoximine-induced Cataract Formation in Newborn Rats Free Radical Biology & Medicine, Vol. 18, No. 4, pp.823-829, 1995.
28 to 36-hour old SD rats purchased from SLC Japan (Kabushiki Kaisha) were used for the test.
Cataract was induced by subcutaneously administering 3 mmol/kg of BSO at 8:00 A.M. and 4:00 P.M. for 2 days.
Observation of cataract was performed using a slit lamp microscope after the newborn rats opened their eyes after the BSO administration. The opacity of each of the lenses was assessed and classified into one of the following 0-5 grades.
0: a clear lens without opacity
1: a lens with opacities in part of the equatorial region
2: a lens with opacities along the equatorial region
3: a lens with opacities in part of the cortex
4: a lens with opacities in the whole cortex
5: a lens with opacities advancing up to the central region.
The test compound was intraperitoneally administered 4 and 12 hours after the administration of BSO.

[2] = test system: acetaminophen-induced hepatopathy; assay: Effect on acetaminophen-induced hepatopathy in mice; assay type: in vivo; settings: male ddy mice
Method: The present compound was examined for the effect on acetaminophen-induced hepatopathy in mice.
The compound of Example 2 (abbreviated to ETS-GS-Na) 0.1 mmol/ 10 ml/kg, i.p.
7-week old male ddy mice purchased from SLC Japan (Kabushiki Kaisha) were used for the test following a 24-hour fasting.
Hepatopathy was induced by oral administration of 250 mg/10 ml/kg acetaminophen (dissolved by warming).
24 hours after the oral administration of acetaminophen, blood were sampled for measurement of GOP and GPT activities, indices of hepatopathy. The mice were kept on fasting for 48 hours until the blood sampling was made.
The test compound was intraperitoneally injected 30 min before the administration of acetaminophen.

rat brain homogenate = assay: Formation of lipid peroxide through the autoxidation of rat brain homogenate (TBA method); assay type: biochemical; settings: for Amount of MDA: 37° C. 30 min, mean ± standard deviation (n = 3); for Rate of Suppression: suppression of lipid peroxide formation
Method: The present compound was examined for the effect on the formation of lipid peroxide through the autoxidation of a rat brain homogenate.
Wistars rat (purchased from SLC Japan (Kabushiki Kaisha)) were decapitated without anesthesia and the skull was immediately opened and the brain removed. The brain taken out was washed with ice-cooled, phoshate buffered saline (PBS (50 mM, pH 7.4)), lightly blotted with filter paper and weighed. Four times ice-cooled PBS was added to the brain and homogenized in ice. The homogenate was centrifuged at 1000×g (2700 rpm) for 10 min at 0° C. The supernate thus obtained was used for the test. To 100 μl of the test compound were added 700 μl of PBS and 200 μl of the supernate of the brain homogenate, and incubated at 37° C. for 30 min. A control group and a blank group were incubated with PBS, with the blank group at 0° C. for 30 min. Then, 200 μl of 35% perchloric acid was added to cease the reaction and the mixture was centrifuged at 1300×g (3200 rpm) for 10 min at 0° C. Using the supernate as a sample, the amount of malondialdehyde (MDA) formed was determined by thiobarbituric acid colorimetric method (TBA method).
To 0.11 g (0.5 mmol) of 1,1,3,3-tetraethoxypropane was added methanol to make 50 ml of volume. This solution was diluted 10^3, 3×10^3 and 10^4-folds with methanol and used as the standards (10 μM, 3 μM, 1 μM). Methanol was assigned to 0 μM.
To 1 ml of each of the samples or the standards were added 0.2 ml of 8.1% sodium dodecylsulfate (SDS), 1.5 ml of 20% acetate buffer (pH 3.5) and 0.8% thbiobarbituric acid (TBA) and incubated in a boiling water bath for 60 min. After ice-cooling to cease the reaction, 4 ml of butanol-pyridine (15:1) was added and mixed well. After centrifugation at 1200×g (3000 rpm) for 10 min, the fluorescence intensity of the butanol-pyridine layer was measured at the wavelength of 553 nm with the excitation wavelength of 515 nm.
The rate of suppression of lipid peroxide formation was calculated according to the following equation for each test compound.
Rate of suppression of lipid peroxide formation (%)=[1-(C-A/B-A)]×100
A: Amount (μM) of formed MDA for the blank group
B: Amount (μM) of formed MDA for the control group
C: Amount (μM) of formed MDA for a test compound group

[3] = 0.1 mmol/10 ml/kg i.p. 30 min before acetaminophen 250 mg/kg p.o., blood 24 hours after acetaminophen

Cc1c(C)c2c(c(C)c1OC(=O)C(CC(=O)NCCS(=O)(=O)O)SC[C@H](NC(=O)CC[C@H](N)C(=O)O)C(=O)NCC(=O)O)CCC(C)(CCCC(C)CCCC(C)CCCC(C)C)O2 (stereo partly drawn) [Example 2, S-[2-(N-Carbonylaminoethylsulfonic acid)-1-(α-tocopheryl-6-yl-oxycarbonyl)ethyl]glutathione]
suppression of BSO-induced cataract ([1]; 0.1 mmol/10 ml/kg i.p.): complete suppression | average grade of lens opacity ([1]; BSO 3 mmol/kg s.c., 0.1 mmol/10 ml/kg i.p. 4 and 12 hours after BSO, slit lamp, grades 0-5): 0 | effect on acetaminophen-induced hepatopathy ([2]; 0.1 mmol/10 ml/kg i.p.): significant suppressing effect | blood GOT activity [2, 3]: 336±89 IU/1 | blood GPT activity [2, 3]: 47±22 IU/1

S-[2-(N-Carbonylaminoethylsulfonic acid)-1-(α-tocopheryl-6-yl-oxycarbonyl)ethyl]cysteine [Example 5]
Amount of MDA (rat brain homogenate; 3 × 10^−5M): 0.980 ± 0.249 µM | Rate of Suppression (rat brain homogenate; 3 × 10^−5M): 91.59 ^*3% | Amount of MDA (rat brain homogenate; 3 × 10^−6M): 4.890 ± 0.052 µM | Rate of Suppression (rat brain homogenate; 3 × 10^−6M): 26.71 ^*2% | Amount of MDA (rat brain homogenate; 10^−5M): 4.090 ± 0.348 µM | Rate of Suppression (rat brain homogenate; 10^−5M): 39.98 ^*2% | Amount of MDA (rat brain homogenate; 10^−6M): 5.022 ± 0.060 µM | Rate of Suppression (rat brain homogenate; 10^−6M): 24.52 ^*2%

Cc1c(C)c2c(c(C)c1OC(=O)C(CC(=O)O)SC[C@H](NC(=O)CC[C@H](N)C(=O)O)C(=O)NCC(=O)O)CCC(C)(CCCC(C)CCCC(C)CCCC(C)C)O2 (stereo partly drawn) [Example 1, S-[2-Carboxy-1-(α-tocopheryl-6-yl-oxycarbonyl)Ethyl]glutathione]
Amount of MDA (rat brain homogenate; 3 × 10^−5M): 0.838 ± 0.056 µM | Rate of Suppression (rat brain homogenate; 3 × 10^−5M): 93.94 ^*3% | Amount of MDA (rat brain homogenate; 3 × 10^−6M): 4.079 ± 0.126 µM | Rate of Suppression (rat brain homogenate; 3 × 10^−6M): 40.17 ^*3% | Amount of MDA (rat brain homogenate; 10^−5M): 1.338 ± 0.039 µM | Rate of Suppression (rat brain homogenate; 10^−5M): 85.64 ^*3% | Amount of MDA (rat brain homogenate; 10^−6M): 5.208 ± 0.083 µM | Rate of Suppression (rat brain homogenate; 10^−6M): 21.43 ^*2%
